Where two headings read alike, the source gives them in different places.
Assays:
Assay in all cases: KiNativ assay
Assay type in all cases: binding
Conditions in all cases: H929 live cell
FER = FER (Homo sapiens (Human), UniProt P16591)
Experimental: (§1) Biochemical IC50s of the compounds of the present disclosure against various kinases were measured in a KiNativ assay. Compounds were screened in duplicate at 10 μM in H929 live cell. IC50 was measured via Mass spectroscopy (MS).

MAP2K6 = MAP2K6 (Homo sapiens (Human), UniProt P52564)
Experimental: as §1

NuaK1 = NuaK1 (Homo sapiens (Human), UniProt O60285)
Experimental: as §1

ATR = ATR (Homo sapiens (Human), UniProt Q13535)
Experimental: as §1

AurB = AurB (Homo sapiens (Human), UniProt Q96GD4)
Experimental: as §1

JAK1 domain1 = JAK1 domain1 (Homo sapiens (Human), UniProt P23458)
Experimental: as §1

MARK4 = MARK4 (Homo sapiens (Human), UniProt Q96L34)
Experimental: as §1

RSK2 domain1 = RSK2 domain1 (Homo sapiens (Human), UniProt P51812)
Experimental: as §1

HPK1 = HPK1 (Homo sapiens (Human), UniProt Q92918)
Experimental: as §1

STLK5 = STLK5 (Homo sapiens (Human), UniProt Q7RTN6)
Experimental: as §1

PEK = PEK (Homo sapiens (Human), UniProt Q9NZJ5)
Experimental: as §1

CHK2 = CHK2 (Homo sapiens (Human), UniProt O96017)
Experimental: as §1

AurA, AurB, AurC = system: AurA, AurB, AurC
Experimental: as §1

[1] = system: CaMK2a, CaMK2b, CaMK2d, CaMK2g
Experimental: as §1

MAP3K1 = MAP3K1 (Homo sapiens (Human), UniProt Q13233)
Experimental: as §1

p70S6K = p70S6K (Homo sapiens (Human), UniProt P23443)
Experimental: as §1

CK1g3 = CK1g3 (Homo sapiens (Human), UniProt Q9Y6M4)
Experimental: as §1

NEK3 = NEK3 (Homo sapiens (Human), UniProt P51956)
Experimental: as §1

ZAK = ZAK (Homo sapiens (Human), UniProt Q9NYL2)
Experimental: as §1

TBK1 = TBK1 (Homo sapiens (Human), UniProt Q9UHD2)
Experimental: as §1

NEK9 = NEK9 (Homo sapiens (Human), UniProt Q8TD19)
Experimental: as §1

NEK4 = NEK4 (Homo sapiens (Human), UniProt P51957)
Experimental: as §1

BRAF = BRAF (Homo sapiens (Human), UniProt P15056)
Experimental: as §1

NuaK2 = NuaK2 (Homo sapiens (Human), UniProt Q9H093)
Experimental: as §1

MARK1, MARK2 = system: MARK1, MARK2
Experimental: as §1

MAP3K2, MAP3K3 = system: MAP3K2, MAP3K3
Experimental: as §1

MARK3 = MARK3 (Homo sapiens (Human), UniProt P27448)
Experimental: as §1

SNRK = SNRK (Homo sapiens (Human), UniProt Q9NRH2)
Experimental: as §1

PKCi = PKCi (Homo sapiens (Human), UniProt P41743)
Experimental: as §1

MASTL = MASTL (Homo sapiens (Human), UniProt Q96GX5)
Experimental: as §1

MAST3 = MAST3 (Homo sapiens (Human), UniProt O60307)
Experimental: as §1

MAP3K4 = MAP3K4 (Homo sapiens (Human), UniProt Q9Y6R4)
Experimental: as §1

PIP4K2A = PIP4K2A (Homo sapiens (Human), UniProt P48426)
Experimental: as §1

Sequence of NuaK1 (O60285 whole entry): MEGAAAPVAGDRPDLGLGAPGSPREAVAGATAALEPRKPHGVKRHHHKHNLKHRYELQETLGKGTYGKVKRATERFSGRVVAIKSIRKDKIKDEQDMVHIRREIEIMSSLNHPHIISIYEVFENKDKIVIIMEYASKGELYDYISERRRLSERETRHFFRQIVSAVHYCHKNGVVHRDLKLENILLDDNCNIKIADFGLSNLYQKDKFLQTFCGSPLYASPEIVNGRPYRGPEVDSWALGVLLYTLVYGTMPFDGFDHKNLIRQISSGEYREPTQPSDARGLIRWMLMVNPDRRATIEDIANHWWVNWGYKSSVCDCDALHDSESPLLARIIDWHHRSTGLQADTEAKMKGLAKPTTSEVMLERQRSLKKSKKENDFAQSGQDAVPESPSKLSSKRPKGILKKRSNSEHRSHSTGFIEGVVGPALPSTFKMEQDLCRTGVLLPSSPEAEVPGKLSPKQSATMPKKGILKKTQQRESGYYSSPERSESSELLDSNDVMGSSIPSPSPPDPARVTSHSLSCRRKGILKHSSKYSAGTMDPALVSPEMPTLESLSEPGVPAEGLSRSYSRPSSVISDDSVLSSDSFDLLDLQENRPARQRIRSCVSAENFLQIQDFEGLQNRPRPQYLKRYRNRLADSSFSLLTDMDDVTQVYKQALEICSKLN
Sequence of MARK3 (P27448 whole entry): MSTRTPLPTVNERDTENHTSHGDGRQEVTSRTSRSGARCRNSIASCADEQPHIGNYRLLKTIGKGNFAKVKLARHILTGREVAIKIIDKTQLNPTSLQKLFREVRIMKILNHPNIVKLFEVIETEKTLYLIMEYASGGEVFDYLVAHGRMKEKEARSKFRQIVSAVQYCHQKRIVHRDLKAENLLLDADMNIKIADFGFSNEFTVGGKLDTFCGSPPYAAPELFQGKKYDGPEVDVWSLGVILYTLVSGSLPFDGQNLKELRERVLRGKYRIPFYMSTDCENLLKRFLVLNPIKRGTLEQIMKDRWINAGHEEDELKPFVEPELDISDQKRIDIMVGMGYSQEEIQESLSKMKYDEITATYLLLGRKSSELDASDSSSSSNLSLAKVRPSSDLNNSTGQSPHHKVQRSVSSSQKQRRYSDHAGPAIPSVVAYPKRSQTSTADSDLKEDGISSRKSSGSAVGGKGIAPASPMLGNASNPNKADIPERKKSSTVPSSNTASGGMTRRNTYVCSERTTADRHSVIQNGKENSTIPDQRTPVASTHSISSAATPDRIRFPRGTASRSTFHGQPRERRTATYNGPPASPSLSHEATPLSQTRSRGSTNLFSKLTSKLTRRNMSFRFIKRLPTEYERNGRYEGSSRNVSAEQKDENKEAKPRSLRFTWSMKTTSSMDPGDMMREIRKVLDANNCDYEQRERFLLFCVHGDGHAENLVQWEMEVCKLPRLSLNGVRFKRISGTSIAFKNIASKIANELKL
Sequence of ZAK (Q9NYL2 whole entry): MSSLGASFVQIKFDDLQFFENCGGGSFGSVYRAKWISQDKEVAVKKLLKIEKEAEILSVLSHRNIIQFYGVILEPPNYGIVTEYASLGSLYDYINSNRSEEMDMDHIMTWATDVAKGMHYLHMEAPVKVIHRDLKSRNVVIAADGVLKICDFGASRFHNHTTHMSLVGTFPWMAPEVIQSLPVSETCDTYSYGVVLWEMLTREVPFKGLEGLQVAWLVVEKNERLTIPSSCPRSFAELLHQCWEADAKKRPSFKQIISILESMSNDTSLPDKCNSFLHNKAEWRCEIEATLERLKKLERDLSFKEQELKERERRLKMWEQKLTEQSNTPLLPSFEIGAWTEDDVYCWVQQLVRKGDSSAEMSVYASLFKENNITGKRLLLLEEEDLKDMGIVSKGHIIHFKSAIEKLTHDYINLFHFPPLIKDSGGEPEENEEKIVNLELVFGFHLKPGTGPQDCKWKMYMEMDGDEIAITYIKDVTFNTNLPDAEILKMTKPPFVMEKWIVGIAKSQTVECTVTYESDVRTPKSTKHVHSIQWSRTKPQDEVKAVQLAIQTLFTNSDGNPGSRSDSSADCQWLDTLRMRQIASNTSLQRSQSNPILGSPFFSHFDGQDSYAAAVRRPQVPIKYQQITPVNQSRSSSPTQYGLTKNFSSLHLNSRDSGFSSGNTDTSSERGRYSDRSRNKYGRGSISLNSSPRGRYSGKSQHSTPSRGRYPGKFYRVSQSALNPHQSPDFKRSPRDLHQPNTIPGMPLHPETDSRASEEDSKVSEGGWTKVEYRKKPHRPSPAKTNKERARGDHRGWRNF
Sequence of CK1g3 (Q9Y6M4 whole entry): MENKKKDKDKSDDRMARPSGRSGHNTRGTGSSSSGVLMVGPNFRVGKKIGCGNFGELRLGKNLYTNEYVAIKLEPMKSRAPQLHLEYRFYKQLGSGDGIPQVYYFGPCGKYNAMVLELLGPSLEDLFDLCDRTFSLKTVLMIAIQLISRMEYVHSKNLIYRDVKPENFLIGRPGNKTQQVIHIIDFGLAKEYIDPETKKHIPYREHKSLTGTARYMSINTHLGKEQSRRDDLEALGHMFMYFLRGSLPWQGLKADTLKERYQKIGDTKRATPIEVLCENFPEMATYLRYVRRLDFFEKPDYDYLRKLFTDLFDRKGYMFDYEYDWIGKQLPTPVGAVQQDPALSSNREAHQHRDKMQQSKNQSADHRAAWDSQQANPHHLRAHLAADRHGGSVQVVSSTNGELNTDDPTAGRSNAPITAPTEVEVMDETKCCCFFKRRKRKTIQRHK
Sequence of NEK4 (P51957 whole entry): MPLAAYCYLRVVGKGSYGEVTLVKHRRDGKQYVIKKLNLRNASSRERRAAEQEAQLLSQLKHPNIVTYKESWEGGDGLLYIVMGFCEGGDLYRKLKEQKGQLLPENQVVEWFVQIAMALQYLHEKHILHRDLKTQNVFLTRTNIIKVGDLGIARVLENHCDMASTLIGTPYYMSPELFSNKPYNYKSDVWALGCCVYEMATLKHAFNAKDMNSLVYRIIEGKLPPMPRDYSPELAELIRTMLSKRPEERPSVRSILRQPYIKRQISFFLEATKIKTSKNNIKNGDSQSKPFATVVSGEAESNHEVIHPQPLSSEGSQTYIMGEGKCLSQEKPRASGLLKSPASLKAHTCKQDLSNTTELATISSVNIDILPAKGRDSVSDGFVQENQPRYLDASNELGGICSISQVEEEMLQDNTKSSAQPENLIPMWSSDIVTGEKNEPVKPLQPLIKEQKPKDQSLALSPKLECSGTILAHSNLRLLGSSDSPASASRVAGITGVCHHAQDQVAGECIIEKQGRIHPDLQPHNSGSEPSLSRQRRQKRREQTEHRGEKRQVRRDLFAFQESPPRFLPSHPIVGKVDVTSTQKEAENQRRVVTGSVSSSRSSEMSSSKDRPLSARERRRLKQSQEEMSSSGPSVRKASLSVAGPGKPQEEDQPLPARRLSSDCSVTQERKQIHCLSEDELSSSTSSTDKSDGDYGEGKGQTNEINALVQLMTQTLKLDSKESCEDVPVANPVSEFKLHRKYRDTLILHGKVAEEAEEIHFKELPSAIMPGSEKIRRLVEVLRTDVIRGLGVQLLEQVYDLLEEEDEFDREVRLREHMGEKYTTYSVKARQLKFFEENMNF
Sequence of HPK1 (Q92918 whole entry): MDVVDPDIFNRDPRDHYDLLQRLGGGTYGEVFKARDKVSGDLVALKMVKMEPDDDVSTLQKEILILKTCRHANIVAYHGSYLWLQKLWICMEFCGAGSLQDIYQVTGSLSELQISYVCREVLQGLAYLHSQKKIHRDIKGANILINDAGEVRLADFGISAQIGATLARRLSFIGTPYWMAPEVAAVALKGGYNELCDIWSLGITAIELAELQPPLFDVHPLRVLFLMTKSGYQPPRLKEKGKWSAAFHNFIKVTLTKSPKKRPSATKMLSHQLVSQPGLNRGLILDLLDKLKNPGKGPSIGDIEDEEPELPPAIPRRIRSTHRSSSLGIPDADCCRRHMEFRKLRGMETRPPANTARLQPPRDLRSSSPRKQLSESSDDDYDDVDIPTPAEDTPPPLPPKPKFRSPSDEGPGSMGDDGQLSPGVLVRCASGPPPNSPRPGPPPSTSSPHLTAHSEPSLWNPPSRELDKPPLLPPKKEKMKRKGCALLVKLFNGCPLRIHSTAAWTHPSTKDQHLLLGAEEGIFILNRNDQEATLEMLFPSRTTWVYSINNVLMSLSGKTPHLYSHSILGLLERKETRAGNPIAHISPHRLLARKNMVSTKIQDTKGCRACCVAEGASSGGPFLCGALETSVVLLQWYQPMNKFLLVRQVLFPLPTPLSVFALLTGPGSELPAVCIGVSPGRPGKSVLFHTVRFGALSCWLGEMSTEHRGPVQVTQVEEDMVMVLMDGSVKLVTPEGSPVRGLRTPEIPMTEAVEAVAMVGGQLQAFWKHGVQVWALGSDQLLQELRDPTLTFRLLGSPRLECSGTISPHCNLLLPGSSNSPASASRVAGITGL
Sequence of PKCi (P41743 whole entry): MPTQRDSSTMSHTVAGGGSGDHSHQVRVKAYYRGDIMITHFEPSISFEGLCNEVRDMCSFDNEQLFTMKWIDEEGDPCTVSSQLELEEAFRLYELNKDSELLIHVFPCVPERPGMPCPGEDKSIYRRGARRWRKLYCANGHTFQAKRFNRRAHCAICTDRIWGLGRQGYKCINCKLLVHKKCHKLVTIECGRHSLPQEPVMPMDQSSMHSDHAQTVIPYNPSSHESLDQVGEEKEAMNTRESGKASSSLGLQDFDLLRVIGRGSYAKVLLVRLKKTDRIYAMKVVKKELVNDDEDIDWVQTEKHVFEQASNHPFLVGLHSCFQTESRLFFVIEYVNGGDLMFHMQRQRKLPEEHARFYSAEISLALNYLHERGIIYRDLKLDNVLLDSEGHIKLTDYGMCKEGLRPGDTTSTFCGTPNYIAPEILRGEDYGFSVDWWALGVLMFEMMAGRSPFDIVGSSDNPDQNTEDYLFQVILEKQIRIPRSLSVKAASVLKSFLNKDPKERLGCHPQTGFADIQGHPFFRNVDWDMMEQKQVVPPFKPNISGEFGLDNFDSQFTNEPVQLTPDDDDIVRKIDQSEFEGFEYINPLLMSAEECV

`CN(C1CC1)S(=O)(=O)c1ccc(-c2cnc(N)c(-c3ccc4c(c3)CCNC4=O)c2)c(F)c1` [Compound I-28, 4-(6-amino-5-(1-oxo-1,2,3,4-tetrahydroisoquinolin-6-yl)pyridin-3-yl)-N-cyclopropyl-3-fluoro-N-methylbenzenesulfonamide] showed an inhibition at 10 µM (FER; read-out: % inhibition (range)) of 0%, an inhibition at 10 µM (FER; read-out: inhibition (10 μM)) of -3.9% and an inhibition at 10 µM (MAP2K6; read-out: % inhibition (range)) of 0%. For the same compound, the inhibition at 10 µM (MAP2K6; read-out: inhibition (10 μM)) was 27.6%, the “inhibition (10 μM)” value (NuaK1) was 66.7% and the inhibition at 10 µM (NuaK1; read-out: % inhibition (range)) was 50 to 75%. The inhibition at 10 µM (NuaK1; read-out: inhibition (10 μM)) was 55.6%, the inhibition at 10 µM (ATR; read-out: % inhibition (range)) was 0% and the inhibition at 10 µM (ATR; read-out: inhibition (10 μM)) was -37.5%. The inhibition at 10 µM (AurB; read-out: % inhibition (range)) was 0%, the inhibition at 10 µM (AurB; read-out: inhibition (10 μM)) was 32.7% and the inhibition at 10 µM (JAK1 domain1; read-out: % inhibition (range)) was 0%. For the same compound, the inhibition at 10 µM (JAK1 domain1; read-out: inhibition (10 μM)) was -38.6%, the inhibition at 10 µM (MARK4; read-out: % inhibition (range)) was 0% and the inhibition at 10 µM (MARK4; read-out: inhibition (10 μM)) was 23.1%. It also gave an inhibition at 10 µM (RSK2 domain1; read-out: % inhibition (range)) of 0%, an inhibition at 10 µM (RSK2 domain1; read-out: inhibition (10 μM)) of 20.3% and an inhibition at 10 µM (HPK1; read-out: % inhibition (range)) of over 90%. It also gave an inhibition at 10 µM (HPK1; read-out: inhibition (10 μM)) of 90.8%, an inhibition at 10 µM (STLK5; read-out: % inhibition (range)) of 0% and an inhibition at 10 µM (STLK5; read-out: inhibition (10 μM)) of 6.3%. For the same compound, the inhibition at 10 µM (PEK; read-out: % inhibition (range)) was 0%, the inhibition at 10 µM (PEK; read-out: inhibition (10 μM)) was -15.7% and the inhibition at 10 µM (CHK2; read-out: % inhibition (range)) was 0%. For the same compound, the inhibition at 10 µM (CHK2; read-out: inhibition (10 μM)) was 6.8%, the “% inhibition (range)” value (AurA, AurB, AurC; 10 μM) was 0.0% and the “inhibition (10 μM)” value (AurA, AurB, AurC) was 21.4%. For the same compound, the “% inhibition (range)” value ([1]; 10 μM) was 0.0%, the “inhibition (10 μM)” value [1] was 1.4% and the inhibition at 10 µM (MAP3K1; read-out: % inhibition (range)) was over 90%. For the same compound, the inhibition at 10 µM (MAP3K1; read-out: inhibition (10 μM)) was 91.1%, the inhibition at 10 µM (p70S6K; read-out: % inhibition (range)) was 0% and the inhibition at 10 µM (p70S6K; read-out: inhibition (10 μM)) was -22.7%. The inhibition at 10 µM (CK1g3; read-out: % inhibition (range)) was over 90%, the inhibition at 10 µM (CK1g3; read-out: inhibition (10 μM)) was 93.8% and the inhibition at 10 µM (NEK3; read-out: % inhibition (range)) was 0%. The inhibition at 10 µM (NEK3; read-out: inhibition (10 μM)) was -27.2%, the inhibition at 10 µM (ZAK; read-out: % inhibition (range)) was 0% and the inhibition at 10 µM (ZAK; read-out: inhibition (10 μM)) was 18.2%. The inhibition at 10 µM (TBK1; read-out: % inhibition (range)) was 0%, the inhibition at 10 µM (TBK1; read-out: inhibition (10 μM)) was 3.4% and the inhibition at 10 µM (NEK9; read-out: % inhibition (range)) was 0%. It also gave an inhibition at 10 µM (NEK9; read-out: inhibition (10 μM)) of -4.7%, an inhibition at 10 µM (NEK4; read-out: % inhibition (range)) of 0% and an inhibition at 10 µM (NEK4; read-out: inhibition (10 μM)) of -2.8%. The inhibition at 10 µM (BRAF; read-out: % inhibition (range)) was 0%, the inhibition at 10 µM (BRAF; read-out: inhibition (10 μM)) was -4.6% and the inhibition at 10 µM (NuaK2; read-out: % inhibition (range)) was 0%. The inhibition at 10 µM (NuaK2; read-out: inhibition (10 μM)) was 11.2%, the “% inhibition (range)” value (MARK1, MARK2; 10 μM) was 0.0% and the “inhibition (10 μM)” value (MARK1, MARK2) was −1.3%. For the same compound, the “% inhibition (range)” value (MAP3K2, MAP3K3; 10 μM) was 0.0%, the “inhibition (10 μM)” value (MAP3K2, MAP3K3) was 33.8% and the inhibition at 10 µM (MARK3; read-out: % inhibition (range)) was 0%. The inhibition at 10 µM (MARK3; read-out: inhibition (10 μM)) was 14.5%, the inhibition at 10 µM (SNRK; read-out: % inhibition (range)) was 0% and the inhibition at 10 µM (SNRK; read-out: inhibition (10 μM)) was 0%. The inhibition at 10 µM (PKCi; read-out: % inhibition (range)) was 0%, the inhibition at 10 µM (PKCi; read-out: inhibition (10 μM)) was 12.7% and the inhibition at 10 µM (MASTL; read-out: % inhibition (range)) was 0%. For the same compound, the inhibition at 10 µM (MASTL; read-out: inhibition (10 μM)) was 10.2%, the inhibition at 10 µM (MAST3; read-out: % inhibition (range)) was 0% and the inhibition at 10 µM (MAST3; read-out: inhibition (10 μM)) was 14.2%. It also gave an inhibition at 10 µM (MAP3K4; read-out: % inhibition (range)) of 0%, an inhibition at 10 µM (MAP3K4; read-out: inhibition (10 μM)) of -8.8% and an inhibition at 10 µM (PIP4K2A; read-out: % inhibition (range)) of 0%. The inhibition at 10 µM (PIP4K2A; read-out: inhibition (10 μM)) was 3.2%.
